Data on two molecules can be found in US11350582B2, “Plant varieties by application of endocides” (Stephen F. Austin State University, priority 2015, dated 2022).

Assay [1] deals with S. molesta. Nature of the assay: Mutation induction in giant salvinia by spray, greenhouse (Example 12). The assay is classed as in vivo, Salvinia molesta. Here is the method:
General Experimental Procedure: 4-hydroxybenzoic acid (>95%, HPLC analysis) and 3,4-dihydroxybenzoic acid (>95%) were isolated from S. molesta matter by using the method as described in Li, Wang et al. 2013. 4-Hydroxybenzoic and 3,4-dihydroxybenzoic acids were prepared as 50 mL experimental solution with NANOPURE™ water at eight concentrations, 0.015, 0.031, 0.063, 0.125, 0.25, 0.5, 1, and 2%, respectively.
In each of 17 containers (14×15 cm, 0.68 L each), nine healthy and untreated living plants of S. molesta were cultured in tap water in a greenhouse (30° C. during the day time and 20° C. at night). The nine plants included three type I plants (approximately 1 g in fresh weight per plant), three type II plants (approximately 2 g per plant), and three type III plants (approximately 4 g per plant). The plants in each container were sprayed with 10 mL NANOPURE™ water or an experimental compound at various concentrations. Plant growth, morphological variation, and survival status were documented and photographed in each treatment for six weeks after the treatment. Then any new developed plants in each container were transferred into a container with new water for 10 weeks of culture observations.

For the next assay, the system named is king protea explants. Conditions: MS medium culture, cited from earlier work.
In assay [2] the test system is Fusarium oxysporum f. sp. niveum. The settings on record: cited from earlier work.
In a further assay the test system is tobacco. The settings on record: from root exudates of tobacco; cited from earlier work.
The test system of assay [3] is S. molesta. Nature of the assay: Field test in isolated ponds, plots on water surface and soils (Example 17). The assay is classed as in vivo, Salvinia molesta. Conditions: 0.5% 4-hydroxybenzoic acid; for % of Living Biomass/Total Biomass (mean ± s.d.), Type I and II Plants on Water Surface / % of Living Biomass/Total Biomass (mean ± s.d.), Type III Plants on Soils: 12 days. Here is the method:
General Experimental Procedure: The field experiments were conducted in isolated ponds in east Texas, United States. The ponds are small (each were 200-500 m^2 in size) in the hardwood forests and each was fully covered with S. molesta plants and also included least duckweed (L. minuta) and Brazillan watermeal (W. brasillensis). The area was divided by plots, each plot had 50 m^2 in area including approximately 40 m^2 of type I and II S. molesta plants on the water surface and 10 m^2 of type III S. molesta plants on soils. Each plot, except a control plot, was treated with 20 L one of the following experimental solutions by Solo 433 motorized backpack sprayer: 0.5% 4-hydroxybenzoic acid, 0.5% 4-hydroxybenzoic acid mixed with 0.25% DAWN® dish soap, 0.5% 4-hydroxybenzoic acid and 0.25% 3,4-dihydroxybenzoic acid, 0.5% 4-hydroxybenzoic acid and 0.25% 3,4-dihydroxybenzoic acid with 0.25% DAWN® dish soap, and 0.25% DAWN® dish soap. Each test condition had three replicates. 12 days after the treatments, plant growth status was photographed and the plant survival rate was measured by three 1×1 m random sample plots for floating plants on the water surface and two samples in 1×1 m random sample plots for plants on soils. Pairwise comparisons for all treatments (including Control) for living biomass were made using Tukey test at alpha=0.05, which was done using SAS (SAS 9.4).

The test system of assay [4] is F. oxysporum, F. nivale, Aspergillus flavus, and A. fumigatus. The settings on record: cited from earlier work.
Assay [5] deals with rhizosphere bacterial population. The settings on record: cited from earlier work.
For another assay, the system named is leaf vegetables. Conditions: in vivo; cited from earlier work.
Assay [6] concerns rhizosphere fungal populations. The settings on record: cited from earlier work.
In assay [7] the test system is anthracnose pathogen and N-fixing bacteria in peanut. Conditions: high concentrations; cited from earlier work.
The subject of another assay is taro. Conditions: in vivo; cited from earlier work.
The test system of a further assay is Enterbacter ludwigii. Conditions: cited from earlier work.
[8] abbreviates: 2% solution, 10 mL spray on nine plants (types I, II, III), six weeks.
[9] abbreviates: listed as 4-hydroxybenzoic acid.

As to `O=C(O)c1ccc(O)c(O)c1` [3,4-dihydroxybenzoic acid], in the assay with S. molesta [1] (0.25, 0.5, and 1%), the “mutation induction in S. molesta” value was “induced small leaf mutations”. In addition, the “induced new growth type” value in the assay on S. molesta [1] (0.5% or 1%, six weeks of observation) is “the new plants remained as type I”. Besides, the “survival and damage of S. molesta plants” value in the assay with S. molesta [1] (setting [8]) is “killed all of the plants and no new growth was observed”. The “effect on root mass of king protea explants” value with king protea explants (100 mg/L) is “increase the root mass”. The “effect on growth of king protea explants” value in the assay on king protea explants (500 mg/L) is given as “inhibit growth”. Moreover, the “impacts on root growth of king protea explants (patent's reading of the cited data)” value in the assay on king protea explants is on record as “no significant impacts”.

In the case of `O=C(O)c1ccc(O)cc1` [4-Hydroxybenzoic acid], the “survival and damage of S. molesta plants” value in the assay with S. molesta [1] (0.125% or lower concentrations, six weeks) was “no significant damage”; in the assay with S. molesta [1] (0.25% solution, 10 mL spray on nine plants, first week), “killed all floating leaves of the small plants (type I and II) and partially injured floating leaves of the type III plants”; with S. molesta [1] (0.5% solution, 10 mL spray on nine plants), “killed almost all floating leaves of the nine treated plant within a week”; in the assay on S. molesta [1] (1% solution, 10 mL spray on nine plants (types I, II, III)), “all six type I or II plants were dead without new growth within two days of the treatment”; with S. molesta [1] (setting [8]), “died and showed no new growth”. For the same molecule, the “induced new growth type” value was “Seven plants developed cupped floating leaves (type II)” with S. molesta [1] (0.25% solution, six weeks); “all other newly emerged plants from axillary buds remained as type I” in the assay on S. molesta [1] (0.5% solution, six weeks); “three small plants (type I) emerged from the axillary buds of the type III plants” in the assay with S. molesta [1] (1% solution, end of second week); “primarily type I and II” with S. molesta [3]. Moreover, the mycelial growth result in [2] is given as “stimulate the mycelial growth”. In addition, the “activity on growth and photosynthetic rate in tobacco” value in the assay on tobacco is recorded as “some inhibitory activity”. The “% of Living Biomass/Total Biomass (mean ± s.d.), Type I and II Plants on Water Surface” value with S. molesta [3] and in the assay on S. molesta [3] (setting [9]) was 34.7% each time. Moreover, the “% of Living Biomass/Total Biomass (mean ± s.d.), Type III Plants on Soils” value in the assay on S. molesta [3] and in the assay with S. molesta [3] (setting [9]) was 14.3% throughout. For the same molecule, the “hypha growth and spore proliferation” value in assay [4] was “promote the hypha growth and spore proliferation”. Besides, the “Shannon-Wiener index, rhizosphere bacterial population” value in [5] is given as “decrease”. The “inhibitory activity in growth of some leaf vegetables” value in the assay on leaf vegetables is “weaker than adipic acid”. In addition, in assay [6], the “Shannon-Wiener index, rhizosphere fungal populations” value is “increase”. Besides, in [7], the “effect on anthracnose pathogen and N-fixing bacteria” value was “inhibited”. In the assay on taro, the “inhibitory activity on the growth of taro” value was “weaker inhibitory activity than benzoic acid”. In addition, the “growth of Enterbacter ludwigii” value in the assay with Enterbacter ludwigii was “stimulated the growth”.
